Results on three molecules are retold here after patent US20150322403A1, “REGULATION OF EUKARYOTIC GENE EXPRESSION BY RIBOSOMAL READING-FRAME SWITCH EFFICIENCY CONTROL VIA REGULATORY ELEMENT UPSTREAM OF THE FRAMESHIFTING SITE” (NATIONAL CHUNG HSING UNIVERSITY, priority 2014, published 2015).

Assay [1] deals with theo-OFF2 element and SAH-sensing pseudoknot stimulator. The assay is described as follows: -1 PRF activity, theo-OFF2 plus SAH-sensing pseudoknot, wheat germ lysate. The format is biochemical. To be noted: theo-OFF2 fused with SAH-dependent stimulator. An excerpt: We also fused theo-OFF2 with an SAH-dependent −1 PRF stimulator and examined the ligand-dependent −1 PRF activity in vitro using wheat germ lysate.

The subject of assay [2] is theo-OFF2 element. The assay is described as follows: -1 PRF activity analysis, upstream theo-OFF2 element, wheat germ extract. To be noted: wheat germ lysate, compared with reticulocyte lysate.
Assay [3] concerns theo-ON element. The assay is described as follows: in vitro -1 PRF activity analysis, upstream theo-ON element, reticulocyte lysate. To be noted: DU177 pseudoknot stimulator.
In assay [4] the test system is theo-OFF1 element (theophylline aptamer). The assay is described as follows: in vitro -1 PRF activity analysis, upstream theo-OFF1 element, reticulocyte lysate. To be noted: DU177 pseudoknot stimulator, increasing amounts of theophylline.
Source text: The boxed nucleotides were deleted in the negative control theo-mOFF1 element.
Assay [5] relates to GlcT-OFF RNA element (RAT sequence) upstream of the slippery site. Nature of the assay: in vitro -1 PRF activity analysis, upstream GlcT-OFF element, reticulocyte lysate. It counts as biochemical. To be noted: DU177 pseudoknot stimulator, increasing amounts of protein. From the text:
(§1) Mfold was used to predict structures and free energies of the attenuator and anti-attenuator hairpins.
As the ribonucleic-antiterminator (RAT) sequence of Bacillus subtilis ptsGHI operon adopts an unstable internal loop conformation and can be stabilized by the binding of GlcT antiterminator protein (Langbein, I. et al, J. Mol. Biol. 293, 795-805, 1999), we designed a chimeric RNA element containing an RAT sequence (GlcT-OFF) with the 3′-side of RAT internal loop embedded in a stable hairpin stem and placed the chimeric RNA element upstream of the slippery site with a potent downstream −1 PRF stimulator (FIG. 3A). We rationalized that the engineered hairpin is the dominant conformation and serves as an upstream −1 PRF attenuator, whereas the addition of GlcT protein should disrupt the attenuator hairpin via RAT-GlcT complex formation and thus restore −1 PRF activity.
We then designed the second chimera to down-regulate the −1 PRF by the formation of an efficient attenuator hairpin promoted by the same RNA-protein interactions (FIG. 3A).

Assay [6] has as its system GlcT-ON RNA element. The assay is described as follows: in vitro -1 PRF activity analysis, upstream GlcT-ON element, reticulocyte lysate. To be noted: DU177 pseudoknot stimulator, increasing amounts of protein. The format is biochemical.
Source text: as §1
Therefore, the GlcT-ON RNA element is embedded with three potential RNA motifs; that is, an RAT internal loop, an anti-attenuator hairpin and an efficient −1 PRF attenuator hairpin with the component of the anti-attenuator hairpin being overlapped with the other two motifs. Without the GlcT protein, this anti-attenuator hairpin might be the dominant conformation. Upon GlcT protein addition, the equilibrium might be driven by RNA-protein interaction to disrupt the anti-attenuator hairpin stem and thus release its 3′-side to facilitate the formation of an efficient −1 PRF attenuator hairpin.
Together, these proof-of-principle experiments indicate that −1 PRF activity can be regulated in-trans via a set of RNA-protein interactions designed to control the formation of an upstream −1 PRF attenuation hairpin.

`Nc1ncnc2c1ncn2[C@@H]1O[C@H](CSCC[C@H](N)C(=O)O)[C@@H](O)[C@H]1O` [SAH]: in assay [1], the “-1 frameshifting efficiency in wheat germ lysate” value is given as “only mildly increased”.

Take `Cn1c(=O)c2[nH]cnc2n(C)c1=O` [theophylline]: the “dynamic range of theophylline-dependent -1 PRF activity, theo-OFF2” value in assay [2] is listed as “even higher dynamic range”. For the same molecule, the “-1 PRF activity of reporter with theo-ON” value in assay [3] is “down-regulation”. Also, the “in vitro -1 PRF activity of reporter harboring theo-OFF1” value in assay [4] was “up-regulated”.

B1: GlcT protein: GlcT antiterminator protein binding the RAT sequence of Bacillus subtilis ptsGHI operon (protein, UniProt O31691 1-281, looked up)
PtsGHI operon antiterminator: MNGSFTVKKVLNNNVLIASHHKYSEVVLIGKGIGFGKKQDDVIEDKGYDKMFILKDEKEQKQFKKLLDYVDEKLVDISNDVIYHISNRTNHSLNEHIHIALTDHIAFAIKRQQQGFDMKNPFLMETQSLYPEEYQIAKEVIDMINEKAGLCLPEGEIGFIALHIHSALTNRPLSEVNQHSQLMAQLVEVIEDSFQMKVNKESVNYLRLIRHIRFTIERIKKEEPTKEPEKLMLLLKNEYPLCYNTAWKLIKILQQTLKKPVHEAEAVYLTLHLYRLTNKIS
For B1, the “in vitro -1 PRF efficiency of reporter containing GlcT-OFF” value in assay [5] was “up-regulated”. The “in vitro -1 PRF activity of reporter containing GlcT-ON” value in assay [6] was “repressed”.
